Data on 26 molecules can be found in patent publication US20240016942A1, “STAT DEGRADERS AND USES THEREOF” (Kymera Therapeutics, Inc., priority 2020, published 2024).

In the first assay the target is T1, STAT3 (Homo sapiens, UniProt P40763).
T1 construct: expressed in transfected cells; host or cells: A549
T1 sequence (P40763 whole entry): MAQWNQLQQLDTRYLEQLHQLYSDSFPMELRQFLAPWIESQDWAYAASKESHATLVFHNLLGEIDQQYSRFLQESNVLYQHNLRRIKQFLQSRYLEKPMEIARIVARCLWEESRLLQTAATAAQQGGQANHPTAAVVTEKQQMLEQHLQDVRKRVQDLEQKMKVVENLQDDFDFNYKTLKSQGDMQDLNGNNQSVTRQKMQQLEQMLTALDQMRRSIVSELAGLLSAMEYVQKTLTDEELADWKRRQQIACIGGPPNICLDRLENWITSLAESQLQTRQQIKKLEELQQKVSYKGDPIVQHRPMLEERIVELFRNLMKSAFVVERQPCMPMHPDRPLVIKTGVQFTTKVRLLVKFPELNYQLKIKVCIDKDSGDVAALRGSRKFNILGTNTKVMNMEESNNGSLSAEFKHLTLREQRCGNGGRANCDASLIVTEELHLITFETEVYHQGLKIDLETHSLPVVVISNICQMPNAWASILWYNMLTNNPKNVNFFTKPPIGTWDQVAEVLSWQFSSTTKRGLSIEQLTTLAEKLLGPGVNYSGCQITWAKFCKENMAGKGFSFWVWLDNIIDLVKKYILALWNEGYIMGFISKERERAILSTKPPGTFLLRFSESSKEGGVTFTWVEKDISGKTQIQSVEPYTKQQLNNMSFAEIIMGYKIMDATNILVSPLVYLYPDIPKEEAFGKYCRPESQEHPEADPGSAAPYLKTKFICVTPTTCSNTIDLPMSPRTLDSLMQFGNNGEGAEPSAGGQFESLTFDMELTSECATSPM
The assay can be described thus: STAT3 HiBiT degradation assay (Nano-Glo HiBiT lytic detection) in transfected A549 cells. It counts as cell-based. The conditions noted are these: 24 h compound incubation, read-out: STAT3 HiBIT A549 degradation 24 h: Average external-Abs DC50. As for the experimental part:
Example 1. HiBiT Assay Protocol
Compound preparation and Cell seeding: The transfected A549 cells were harvested from dish into cell culture medium and cell numbers counted. Cells were diluted with culture medium to the desired density and 30 μL of cell suspension (about 2000 cells/well) were added into each well of a 384-well cell culture plate as designated and transferred into 37° C. 5% CO2 incubator for 24 h. Compounds were dissolved to 10 mM stock solution and 12 μL of the stock solution was transferred to a 384 LDV-plate. 3 fold, 10-point dilution was performed by transferring 4 μL compound into 8 μL DMSO using a TECAN (EVO200) liquid handler. 30 μl of diluted compound from compound source plate was transferred into the cell plate as designated by using Echo550 and transferred into 37° C. 5% CO2 incubator for 24 h.
Detection: Plates were removed from incubators and equilibrated at room temperature for 15 minutes. Nano-Glo Hibit Lytic Detection reagent (Promega Cat #N3040) was thawed and equilibrated to room temperature before the experiment. 30 μL of Nano-Glo Hibit Lytic Detection reagent was added into each well to be detected. The plates were held at room temperature for 10 min followed by reading on EnSpire.
Data analysis: The remaining activity was calculated following the formula: Remaining Activity (%)=100%×(Lumsample−LumNC)/(LumPC−LumNC). Calculate the IC50 by fitting the curve using Xlfit (v5.3.1.3), equation 201: fit=(A+((B−A)/(1+((x/C)^D)))); A: Botton; B: Top; C: IC50; and D: Slope.
The letter codes for STAT3 DC50 include: A (<0.01 μM), B (0.01-0.1 μM), C (0.1-1.0 μM), and D (>1.0 μM).
`CN(C)C(=O)[C@@H]1Cc2cc(CCCCCCc3ccc4c(c3)n(C)c(=O)n4C3CCC(=O)NC3=O)cc3c2N1C(=O)[C@@H](NC(=O)c1cc2cc(C(=O)P(=O)(O)O)ccc2[nH]1)CC3` (stereo partly drawn) [I-25, 2-[[(2S, 11S)-2-(dimethylcarbamoyl)-6-[6-[1-(2,6-dioxopiperidin-3-yl)-3-methyl-2-oxo-1,3-benzodiazol-5-yl]hexyl]-12-oxo-1-azatricyclo [6.4.1.0^[4, 13]]trideca-4(13), 5,7-trien-11-yl]carbamoyl]-1H-indole-5-carbonylphosphonic acid]: the DC50 was greater than 1000 nM. For `Cn1c(=O)n(C2CCC(=O)NC2=O)c2ccc(C[C@H]3CC[C@@H](CC(=O)N4CC[C@H]5CC[C@@H](C(=O)NC(C)(C)CCC(N)=O)N5C(=O)[C@@H](NC(=O)c5cc6cc(C(=O)P(=O)(O)O)ccc6[nH]5)C4)CC3)cc21` (some centres unmarked) [I-26], the DC50 is greater than 1000 nM.

`Cn1c(=O)n(C2CCC(=O)NC2=O)c2ccc(CCCc3cccc(OC[C@H](CCC(N)=O)NC(=O)[C@@H]4CC[C@@H]5CCCC[C@H](NC(=O)c6cc7cc(C(=O)P(=O)(O)O)ccc7[nH]6)C(=O)N54)c3Cl)cc21` (some centres unmarked) [I-27]: the DC50 is greater than 1000 nM. Take `Cn1c(=O)n(C2CCC(=O)NC2=O)c2ccc(CCCCCc3cccc(OC[C@H](CCC(N)=O)NC(=O)[C@@H]4CC[C@@H]5CCCC[C@H](NC(=O)c6cc7cc(C(=O)P(=O)(O)O)ccc7[nH]6)C(=O)N54)c3Cl)cc21` (some centres unmarked) [I-28]: the DC50 fell in the range of 100 to 1000 nM. Same read-out and setting: as for `Cn1c(=O)n(C2CCC(=O)NC2=O)c2ccc(C[C@H]3CC[C@@H](CC(=O)N4CC[C@H]5CC[C@@H](C(=O)NC6(CCC(N)=O)CCCC6)N5C(=O)[C@@H](NC(=O)c5cc6cc(C(=O)P(=O)(O)O)ccc6[nH]5)C4)CC3)cc21` (some centres unmarked) [I-29], the figure is greater than 1000 nM. Consider `CC(C)c1ccc(CNC(=O)[C@H](CCC(N)=O)NC(=O)[C@@H]2CC[C@@H]3CCN(C(=O)[C@H]4CC[C@@H](CCc5ccc6c(c5)n(C)c(=O)n6C5CCC(=O)NC5=O)CC4)C[C@H](NC(=O)c4cc5cc(C(=O)P(=O)(O)O)ccc5[nH]4)C(=O)N32)cc1F` (some centres unmarked) [I-30], for which the DC50 was in the range of 10 to 100 nM. Take `Cn1c(=O)n(C2CCC(=O)NC2=O)c2ccc(C[C@H]3CC[C@@H](CC(=O)N4CC[C@H]5CC[C@@H](C(=O)NC6(CCC(N)=O)CC6)N5C(=O)[C@@H](NC(=O)c5cc6cc(C(=O)P(=O)(O)O)ccc6[nH]5)C4)CC3)cc21` (some centres unmarked) [I-31]: the half-maximal degradation concentration (DC50) is greater than 1000 nM.

Regarding `Cn1c(=O)n(C2CCC(=O)NC2=O)c2ccc(CCCCc3cccc(OC[C@H](CCC(N)=O)NC(=O)[C@@H]4CC[C@@H]5CCCC[C@H](NC(=O)c6cc7cc(C(=O)P(=O)(O)O)ccc7[nH]6)C(=O)N54)c3Cl)cc21` (some centres unmarked) [I-32], the DC50 is greater than 1000 nM.

As for `CC(C)c1ccc(CNC(=O)[C@H](CCC(N)=O)NC(=O)[C@@H]2CC[C@@H]3CCN(C(=O)[C@H]4CC[C@@H](CCc5ccc6c(c5)n(C)c(=O)n6C5CCC(=O)NC5=O)CC4)C[C@H](NC(=O)c4cc5cc(C(=O)P(=O)(O)O)ccc5[nH]4)C(=O)N32)c(F)c1` (some centres unmarked) [I-34], the half-maximal degradation concentration (DC50) fell in the range of 10 to 100 nM.

Turning to `CC(C)c1ccc(CNC(=O)[C@H](CCC(N)=O)NC(=O)[C@@H]2CC[C@@H]3CCN(C(=O)[C@H]4CC[C@@H](CCc5ccc6c(c5)n(C)c(=O)n6C5CCC(=O)NC5=O)CC4)C[C@H](NC(=O)c4cc5cc(C(=O)P(=O)(O)O)ccc5[nH]4)C(=O)N32)c(Cl)c1` (stereo partly drawn) [I-35, 2-[[(5S,8S,10aR)-8-[[(1S)-3-Carbamoyl-1-[[(2-chloro-4-isopropylphenyl)methyl]carbamoyl]propyl]carbamoyl]-6-oxo-3-[(1r,4s)-4-[2-[1-(2,6-dioxopiperidin-3-yl)-3-methyl-2-oxo-1,3-benzodiazol-5-yl]ethyl]cyclohexanecarbonyl]-octahydropyrrolo[1,2-a][1,5]diazocin-5-yl]carbamoyl]-1H-indole-5-carbonylphosphonic acid], the half-maximal degradation concentration (DC50) lay in the range of 10 to 100 nM. Same read-out and setting: as for `Cc1ncsc1-c1ccc([C@H](C)NC(=O)[C@@H]2C[C@@H](O)CN2C(=O)[C@@H](NC(=O)CCCCCc2cccc(OC[C@H](CCC(N)=O)NC(=O)[C@@H]3CC[C@@H]4CCN(C(=O)C[C@H]5CC[C@@H](Cc6ccc7c(c6)n(C)c(=O)n7C6CCC(=O)NC6=O)CC5)C[C@H](NC(=O)c5cc6cc(C(=O)P(=O)(O)O)ccc6[nH]5)C(=O)N43)c2F)C(C)(C)C)cc1` (some centres unmarked) [I-36], the figure is 10 to 100 nM; as for `Cn1c(=O)n(C2CCC(=O)NC2=O)c2ccc(CC[C@H]3CC[C@@H](C(=O)N4CC[C@H]5CC[C@@H](C(=O)N[C@@H](CCC(N)=O)c6nc7ccccc7s6)N5C(=O)[C@@H](NC(=O)c5cc6cc(C(=O)P(=O)(O)O)ccc6[nH]5)C4)CC3)cc21` (some centres unmarked) [I-37], 10 to 100 nM. For the molecule `Cn1c(=O)n(C2CCC(=O)NC2=O)c2ccc(C[C@H]3CC[C@@H](CC(=O)N4CC[C@H]5CC[C@@H](C(=O)N[C@@H](CCC(N)=O)C(=O)NC6(c7ccc(S(C)(=O)=O)cc7)CC6)N5C(=O)[C@@H](NC(=O)c5cc6cc(C(=O)P(=O)(O)O)ccc6[nH]5)C4)CC3)cc21` (some centres unmarked) [I-38], the DC50 lay in the range of 100 to 1000 nM.

`Cn1c(=O)n(C2CCC(=O)NC2=O)c2ccc(CC[C@H]3CC[C@@H](C(=O)N4CC[C@H]5CC[C@@H](C(=O)N[C@@H](CCC(N)=O)c6ccccn6)N5C(=O)[C@@H](NC(=O)c5cc6cc(C(=O)P(=O)(O)O)ccc6[nH]5)C4)CC3)cc21` (some centres unmarked) [I-39]: the DC50 was in the range of 10 to 100 nM. The same measure, in the same setting: then `C[C@@H](NC(=O)[C@H](CCC(N)=O)NC(=O)[C@@H]1CC[C@@H]2CCN(C(=O)C[C@H]3CC[C@@H](Cc4ccc5c(c4)n(C)c(=O)n5C4CCC(=O)NC4=O)CC3)C[C@H](NC(=O)c3cc4cc(C(=O)P(=O)(O)O)ccc4[nH]3)C(=O)N21)c1ccc(S(C)(=O)=O)cc1` (some centres unmarked) [I-40], with 100 to 1000 nM.

With `C[C@H](NC(=O)[C@H](CCC(N)=O)NC(=O)[C@@H]1CC[C@@H]2CCN(C(=O)C[C@H]3CC[C@@H](Cc4ccc5c(c4)n(C)c(=O)n5C4CCC(=O)NC4=O)CC3)C[C@H](NC(=O)c3cc4cc(C(=O)P(=O)(O)O)ccc4[nH]3)C(=O)N21)c1ccc(S(C)(=O)=O)cc1` (some centres unmarked) [I-41], the half-maximal degradation concentration (DC50) fell in the range of 100 to 1000 nM. Regarding `CC(=O)N1CC[C@H]2CC[C@@H](C(=O)N[C@@H](CCC(N)=O)COc3cccc(CCCC(=O)N[C@H](C(=O)N4C[C@@H](O)C[C@H]4C(=O)N[C@@H](C)c4ccc(-c5scnc5C)cc4)C(C)(C)C)c3Cl)N2C(=O)[C@@H](NC(=O)c2cc3cc(C(=O)P(=O)(O)O)ccc3[nH]2)C1` [I-42], the DC50 was greater than 1000 nM. The same measure, in the same setting: as for `CC(=O)N1CC[C@H]2CC[C@@H](C(=O)N[C@@H](CCC(N)=O)COc3cccc(CCCCC(=O)N[C@H](C(=O)N4C[C@@H](O)C[C@H]4C(=O)N[C@@H](C)c4ccc(-c5scnc5C)cc4)C(C)(C)C)c3Cl)N2C(=O)[C@@H](NC(=O)c2cc3cc(C(=O)P(=O)(O)O)ccc3[nH]2)C1` [I-43], the figure is greater than 1000 nM; as for `Cn1c(=O)n(C2CCC(=O)NC2=O)c2ccc(C[C@H]3CC[C@@H](CC(=O)N4CC[C@H]5CC[C@@H](C(=O)N[C@@H](CCC(N)=O)C(=O)NCc6ccc(S(C)(=O)=O)cc6F)N5C(=O)[C@@H](NC(=O)c5cc6cc(C(=O)P(=O)(O)O)ccc6[nH]5)C4)CC3)cc21` (some centres unmarked) [I-44], 10 to 100 nM. Same read-out and setting: then `Cn1c(=O)n(C2CCC(=O)NC2=O)c2ccc(C[C@H]3CC[C@@H](CC(=O)N4CC[C@H]5CC[C@@H](C(=O)N[C@@H](CCC(N)=O)C(=O)NCc6ccc(S(C)(=O)=O)cc6Cl)N5C(=O)[C@@H](NC(=O)c5cc6cc(C(=O)P(=O)(O)O)ccc6[nH]5)C4)CC3)cc21` (some centres unmarked) [I-45], with 10 to 100 nM; and `Cn1c(=O)n(C2CCC(=O)NC2=O)c2ccc(NC[C@H]3CC[C@H](C(=O)N4CC[C@H]5CC[C@@H](C(=O)N[C@@H](CCC(N)=O)C(=O)NCc6ccc(S(C)(=O)=O)cc6)N5C(=O)[C@@H](NC(=O)c5cc6cc(C(=O)P(=O)(O)O)ccc6[nH]5)C4)CC3)cc21` (some centres unmarked) [I-47], with 10 to 100 nM; and `Cn1c(=O)n(C2CCC(=O)NC2=O)c2ccc(NC[C@H]3CC[C@@H](C(=O)N4CC[C@H]5CC[C@@H](C(=O)N[C@@H](CCC(N)=O)C(=O)NCc6ccc(S(C)(=O)=O)cc6)N5C(=O)[C@@H](NC(=O)c5cc6cc(C(=O)P(=O)(O)O)ccc6[nH]5)C4)CC3)cc21` (some centres unmarked) [I-48], with 10 to 100 nM. With `C[C@H](CCC(N)=O)NC(=O)[C@@H]1Cc2cc(CCCCCCc3ccc4c(c3)n(C)c(=O)n4C3CCC(=O)NC3=O)cc3c2N1C(=O)[C@@H](NC(=O)c1cc2cc(C(=O)P(=O)(O)O)ccc2[nH]1)CC3` (some centres unmarked) [I-49], the DC50 was 10 to 100 nM. On to `C[C@H](CCC(N)=O)NC(=O)[C@@H]1CC[C@@H]2CCN(C(=O)C[C@H]3CC[C@@H](Cc4ccc5c(c4)n(C)c(=O)n5C4CCC(=O)NC4=O)CC3)C[C@H](NC(=O)c3cc4cc(C(=O)P(=O)(O)O)ccc4[nH]3)C(=O)N21` (some centres unmarked) [I-50], for which the DC50 lay in the range of 100 to 1000 nM.

The assay is the same for the next values; noted with them: read-out: STAT3 HiBIT A549 degradation 24 h: Average external-Abs DC50, 24 h compound incubation.
With `CC(C)c1ccc(CNC(=O)[C@H](CCC(N)=O)NC(=O)[C@@H]2CC[C@@H]3CCN(C(=O)[C@H]4CC[C@@H](CCc5ccc6c(c5)n(C)c(=O)n6C5CCC(=O)NC5=O)CC4)C[C@H](NC(=O)c4cc5cc(C(=O)P(=O)(O)O)ccc5[nH]4)C(=O)N32)cc1Cl` (some centres unmarked) [I-33], the 50% degradation concentration (DC50) was in the range of 10 to 100 nM. Regarding `Cn1c(=O)n(C2CCC(=O)NC2=O)c2ccc(C[C@H]3CC[C@@H](CC(=O)N4CC[C@H]5CC[C@@H](C(=O)N[C@@H](CCC(N)=O)C(=O)NCc6ccc(S(C)(=O)=O)c(F)c6)N5C(=O)[C@@H](NC(=O)c5cc6cc(C(=O)P(=O)(O)O)ccc6[nH]5)C4)CC3)cc21` (some centres unmarked) [I-46], the half-maximal degradation concentration (DC50) was 10 to 100 nM.
